Literature values, collected in patent US20130116244A1, “PHAR[…] COMPOSITIONS” (AESICA FORMULATION DEVELOPMENT LIMITED, priority 2010, published 2013).

Tests used:
[1] = not given; remark: listed apart in the source
[2] = in vivo

Compound | time after which anticonvulsant/sedative effects wear off (typically) | diazepam dose equal in effect to lorazepam 1 mg (relative potency) [1] | duration of anticonvulsant/sedative effects (effects can last for) | half life [2]
CN1C(=O)CN=C(c2ccccc2)c2cc(Cl)ccc21 [diazepam] | 15 to 30 min |  |  | 
O=C1Nc2ccc(Cl)cc2C(c2ccccc2Cl)=NC1O (stereo not shown) [lorazepam, 7-chloro-5-(2-chlorophenyl)-1,3-dihydro-3-hydroxy-2H-1,4-benzodiazepin-2-one] |  | 10 mg | 12 to 24 h | 10 to 20 h
